Assay results reported in patent US20060270684A1, “Crystalline forms of ziprasidone mesylate” (priority 2005, published 2006).
Counter-ions that a name gives are not always drawn. Values belong to the compound of their own block, whether it stands above or below them.

Assays:
[1] = Water absorption of Form I at room temperature for 7 days under various relative humidity conditions; format: physicochemical
Procedure: Copper radiation of 1.5418 Å was used. A round aluminum sample holder with zero background was used. All peak positions are within ±0.2 degrees two theta. Karl Fisher analysis was performed according to the known art.

[2] = Transformations by heat (XRD and Karl Fisher after heating); format: physicochemical
Procedure: (§1) X-Ray powder diffraction data were obtained using a SCINTAG powder X-Ray diffractometer model X'TRA equipped with a solid state detector. Copper radiation of 1.5418 Å was used. A round aluminum sample holder with zero background was used. All peak positions are within ±0.2 degrees two theta.
(§2) Karl Fisher analysis was performed according to the known art.

[3] = Water absorption of Form IX after exposure for 10 days to 100% relative humidity at room temperature; format: physicochemical
Procedure: The present invention provides non-hygroscopic crystalline form of ziprasidone mesylate Form IX. Form IX was tested for water absorption after exposure for 10 days to 100% relative humidity at room temperature, as summarized in the following table:
as §2
Ziprasidone mesylate Form IX was exposed to 100% humidity at room temperature for 10 days. Before the exposure the water content was measured to be about 4.8%, while after the exposure the water content was measure to be about 5.0% water. The difference between water content before and after the exposure to 100% humidity is 0.2%.

[4] = Water absorption of Form XVIII, 7 days at 30° C. under humidity; format: physicochemical
Procedure: as §1, §2

[5] = aqueous medium at ambient temperature; cited from earlier work
[6] = 60% RH, room temperature, 7 days
[7] = 80% RH, room temperature, 7 days
[8] = 100% RH, room temperature, 7 days
[9] = 100% humidity at room temperature for 10 days
[10] = heated at TEMP. 90, 30 min, mesylate dihydrate
[11] = heated at TEMP. 120, 30 min, mesylate dihydrate

Compound: O=C1Cc2cc(CCN3CCN(c4nsc5ccccc45)CC3)c(Cl)cc2N1 [Form I, ziprasidone mesylate]
crystal form (by XRD) [1, 6]: Form I
water content (by Karl Fisher) [1, 6]: 2.5%
crystal form (by XRD) [1, 7]: Form I
water content (by Karl Fisher) [1, 7]: 3.1%
crystal form (by XRD) [1, 8]: Form I
water content (by Karl Fisher) [1, 8]: 4.6%
crystal form (by XRD) ([1]; Initial): Form I
water content (by Karl Fisher) ([1]; Initial): 2.3%
stability when tested for water absorption ([1]; room temperature, 7 days, various relative humidity conditions): stable

Compound: ziprasidone mesylate dihydrate [Dihydrate Lath]
K.F. [2, 10]: 3.1%
RESULT (XRD) [2, 10]: Dihydrate Lath
K.F. [2, 11]: 0.4%
RESULT (XRD) [2, 11]: Dihydrate Lath
K.F. ([2]; heated at TEMP. 140, 30 min): 0.3%
RESULT (XRD) ([2]; heated at TEMP. 140, 30 min): Dihydrate Lath
K.F. ([2]; heated at TEMP. 160, 30 min): 0.2%
RESULT (XRD) ([2]; heated at TEMP. 160, 30 min, listed as Dihydrate lath, mesylate dihydrate): Transformation from dihydrate lath to Form VI
RESULT (XRD) ([2]; heated at TEMP. 160, 30 min, mesylate dihydrate): Form VI
K.F. ([2]; t = 0 (before heating)): (t = 0 6.5%)

Compound: ziprasidone mesylate dihydrate [Dihydrate needle]
K.F. [2, 10]: 3%
RESULT (XRD) [2, 10]: Dihydrate needle
K.F. [2, 11]: 0.5%
RESULT (XRD) [2, 11]: Dihydrate needle

Compound: ziprasidone mesylate trihydrate
thermodynamic stability among the four crystalline forms of ziprasidone mesylate [5]: most thermodynamically stable form

Results, then the compound that gave them:

RESULT (XRD) ([2]; heated at TEMP. 90, 30 min): Form II
Compound: O=C1Cc2cc(CCN3CCN(c4nsc5ccccc45)CC3)c(Cl)cc2N1 [Form II, ziprasidone mesylate]

water content (by Karl Fisher) ([3]; 100% RH at RT, 10 days): 5%
difference between water content before and after the exposure [3, 9]: 0.2%
water content after the exposure [3, 9]: about 5.0%
water content (by Karl Fisher) ([3]; Initial): 4.7%
water content before the exposure ([3]; before exposure to 100% humidity): about 4.8%
hygroscopicity ([3]; non-hygroscopic = does not absorb more than 0.2% of water at 80% humidity, 25° C., 24 hours): non-hygroscopic
Compound: O=C1Cc2cc(CCN3CCN(c4nsc5ccccc45)CC3)c(Cl)cc2N1 [Form IX, ziprasidone mesylate]

Water content (by KF) ([4]; 80% RH, 7 days at 30° C.): 8.2%
crystal form (by XRD) ([4]; 80% RH, 7 days at 30° C.): Trihydrate
crystal form (by XRD) ([4]; 80% RH, 7 days at 30° C., listed as form XVIII): transformation to trihydrate
water content determined by Karl Fisher ([4]; 80% humidity for 7 days at 30° C.): about 8.2%
Water content (by KF) ([4]; 100% RH, 7 days at 30° C.): 9.1%
crystal form (by XRD) ([4]; 100% RH, 7 days at 30° C.): Trihydrate
Water content (by KF) ([4]; Initial): 2%
crystal form (by XRD) ([4]; Initial): XVIII
Compound: O=C1Cc2cc(CCN3CCN(c4nsc5ccccc45)CC3)c(Cl)cc2N1 [Form XVIII, ziprasidone mesylate]
